Data: patent US6472430B2, “Amino thioxomethyl amino oxyacetic acid derivatives” (priority 2000, dated 2002)

Experiments:
Male Sprague-Dawley rats = test: Determination of serum HDL cholesterol in cholesterol/cholic acid-fed rats; format: in vivo, rat; details: dose of 100 mg/kg mixed in diet, eight days, six rats per group, diet with 0.25% cholic acid and 1.0% cholesterol, serum HDL cholesterol by FPLC; for change in vivo at 100 mg/kg: Rattus norvegicus, feed or water, 192 h, read-out: HDL Cholesterol Level Increase (%)
Method: The ability of the compounds of this invention to increase blood serum HDL levels was evaluated by the following standard experimental procedure for determination of HDL cholesterol:
Male Sprague-Dawley rats weighing 200-225 g were housed two per cage and fed Purina Rodent Chow Special Mix 5001-S supplemented with 0.25% cholic acid and 1.0% cholesterol and water ad libitum for 8 days. Each test substance was administered to a group of six rats fed the same diet with the test diet mixed in as 0.005-0.1% of the total diet. Body weight and food consumption were recorded prior to diet administration and at termination. Typical doses of the test substances are 5-100 mg/kg/day.
At termination, blood was collected from anesthetized rats and the serum was separated by centrifugation. Total serum cholesterol was assayed using the Sigma Diagnostics enzymatic kit for the determination of cholesterol, Procedure No. 352, modified for use with ninety-six well microtiter plates. After reconstitution with water the reagent contained 300 U/l cholesterol oxidase, 100 U/l cholesterol esterase, 1000 U/l horseradish peroxidase, […] p-hydroxybenzenesulfonate in a pH 6.5 buffer. In the reaction cholesterol is oxidized to produce hydrogen peroxide which is used to form a quinoneimine dye. The concentration of dye formed is measured spectrophotometrically by absorbence at 490 nm after incubation at 25° C. for 30 minutes. The concentration of cholesterol was determined for each serum sample relative to a commercial standard from Sigma.
HDL cholesterol concentrations in serum were determined by separation of lipoprotein classes by fast protein liquid chromatography (FPLC) by a modification of the method of Kieft et al., J. Lipid Res., 32 (1991) 859-866. 25 ul of serum was injected onto Superose 12 and Superose 6 (Pharmacia), in series, with a column buffer of 0.05 M Tris (2-amino-2-hydroxymethyl-1,3-propanediol) and 0.15 M sodium chloride at a flow rate of 0.5 ml/min. The eluted sample was mixed on line with Boehringer-Mannheim cholesterol reagent pumped at 0.2 ml/min. The combined eluents were mixed and incubated on line through a knitted coil (Applied Biosciences) maintained at a temperature of 45° C. The eluent was monitored by measuring absorbance at 490 nm and gave a continuous absorbance signal proportional to the cholesterol concentration. The relative concentration of each lipoprotein class was calculated as the per cent of total absorbency. HDL cholesterol concentration, in serum, was calculated as the per cent of total cholesterol as determined by FPLC multiplied by the total serum cholesterol concentration.
Test compounds were administered at a dose of 100 mg/kg. Each test substance was administered to a group of six rats. The duration of treatment was eight days.

Molecule	change in vivo at 100 mg/kg (Male Sprague-Dawley rats)	melting point	HDL Cholesterol Level Increase (%) (Male Sprague-Dawley rats)
CCOC(=O)CON(C)C(=S)Nc1cc(Cl)ccc1C [Example 1, Ethyl [[[[(5-Chloro-2-methylphenyl)amino]thioxomethyl]methylamino]oxy]acetate]	118%	83 to 84 °C	
CCOC(=O)CON(C)C(=S)Nc1ccc(Cl)cc1C [Example 2, Ethyl [[[[(4-Chloro-2-methylphenyl)amino]thioxomethyl]methylamino]oxy]acetate]	62%	104 to 106 °C	
CCOC(=O)CON(C)C(=S)Nc1ccc2c(c1)CCC2 [Example 3, Ethyl [[[[(2,3-dihydro-1H-inden-5-yl)amino]thioxomethyl]methylamino]oxy]acetate]	146%	69 to 71 °C	
CCOC(=O)CON(C)C(=S)Nc1cc(C)ccc1C [Example 5, Ethyl [[[[(2,5-dimethylphenyl)amino]thioxomethyl]methylamino]oxy]acetate]	40%		
CCOC(=O)CON(C)C(=S)NCC(C)C [Example 6, Ethyl [[[[(2-methylpropyl)amino]thioxomethyl]methylamino]oxy]acetate]	17%		
CCOC(=O)CON(C)C(=S)Nc1ccc(Oc2ccccc2)cc1 [Example 7, Ethyl [[[[(4-phenoxyphenyl)amino]thioxomethyl]methylamino]oxy]acetate]	35%		
CCOC(=O)CON(CC)C(=S)Nc1ccc(Cl)cc1C [Example 8, Ethyl [[[[(4-Chloro-2-methylphenyl)amino]thioxomethyl]ethylamino]oxy]acetate]	90%	69 to 71 °C	
CCOC(=O)CON(C(=S)Nc1cc(Cl)ccc1C)C(C)C [Example 9, Ethyl [[[[(5-Chloro-2-methylphenyl)amino]thioxomethyl](1-methylethyl)amino]oxy]acetate]	46%	83 to 85 °C	
CCOC(=O)CON(C(=S)Nc1cc(Cl)ccc1C)C(C)CC (stereo not drawn) [Example 10, Ethyl [[[[(5-Chloro-2-methylphenyl)amino]thioxomethyl](1-methylpropyl)amino]oxy]acetate]	39%		
Ethyl [[methyl[[(2-(1-methylethyl)phenyl]amino]thioxomethyl]methylamino]oxy]acetate [Example 4]			104%
